Converted amounts (≈) assume the structure as drawn.
How the values were obtained:
Leishmania major = test: Antileishmanial activity against Leishmania major amastigotes infected in human peripheral blood monocyte-derived macrophages; assay type: functional, organism-based
Leishmania panamensis = test: Antileishmanial activity against GFP fused Leishmania panamensis MHOM/CO/87/UA140 amastigotes infected in human […] cells after 72 hrs by flow cytometry; assay type: functional, organism-based; details: MHOM/CO/87/UA140, 72 h
Leishmania amazonensis [1] = test: Antileishmanial activity against Leishmania amazonensis MHOM/BR/76/LTB-012 axenic amastigotes after 72 hrs by MTT dye based assay; assay type: functional, organism-based; details: MHOM/BR/76/LTB-012, 72 h
Leishmania amazonensis [2] = test: Antileishmanial activity against Leishmania amazonensis MHOM/BR/76/LTB-012 axenic amastigotes; assay type: functional, organism-based
Leishmania donovani [3] = test: Antileishmanial activity against Leishmania donovani MHOM/SD/00/1SD2D […] amastigotes infected in human peripheral blood monocyte-derived macrophages after 48 hrs by [3H]-thymidine incorporation assay; assay type: functional, organism-based
Leishmania amazonensis [4] = test: Antileishmanial activity against Leishmania amazonensis LV/79 (MPRO/BR/72/M 1841) amastigotes infected in Balb/c mouse macrophages after 48 hrs by Giemsa staining based light microscopic method; assay type: functional; details: read-out: ED50 (the source's name)
Leishmania donovani [5] = test: Antileishmanial activity against DsRed-positive Leishmania donovani Dd8 amastigotes infected in mouse J774A1 cells after 48 hrs by flow cytometry; assay type: functional, organism-based; details: Dd8, J774.A1, 48 h
Leishmania donovani [6] = test: Antileishmanial activity against Leishmania donovani L82 amastigotes infected in CD1 mouse peritoneal macrophages after 5 days by Giemsa staining based microscopic method; assay type: functional; details: L82, 120 h, read-out: ED50 (the source's name)
Leishmania amazonensis [7] = test: Antileishmanial activity against Leishmania amazonensis MHOM/BR/75/M-2904 strain Lb2904 amastigotes infected in mouse J774A1 cells after 48 hrs by Giemsa staining based microscopic method; assay type: functional, organism-based; details: MHOM/BR/75/M-2904 Lb290, J774.A1, 48 h
Leishmania donovani [8] = test: Antileishmanial activity against Leishmania donovani amastigotes; assay type: functional, organism-based

C=CC(C)(C)c1cc(/C=C/C(=O)c2ccc(O)cc2)c(OC)cc1O [LICOAGROCHACONE A]
IC50 (Leishmania major): 0.5 µg/mL (≈ 1.48 µM)

O=C(/C=C/c1cccc(Nc2ccnc3cc(Cl)ccc23)c1)c1ccc(Br)cc1
IC50 (Leishmania panamensis): 0.88 µg/mL (≈ 1.9 µM)

COc1cc(OC)c(C(=O)/C=C/c2ccccc2)c(O)c1OC
IC50 (Leishmania amazonensis [1]): 0.8 µM

COc1cc(O)c(C(=O)/C=C/c2ccc(O)cc2)c(O)c1
IC50 (Leishmania amazonensis [2]): 61.4 µM

C=CCOc1ccc(C(=O)/C=C/c2ccc(OC)c(OC)c2)cc1
IC50 (Leishmania donovani [3]): 0.42 µM

COc1cc(O)c(C(=O)/C=C/c2ccccc2)c(O)c1
EC50 (Leishmania amazonensis [4]): 24 µg/mL (≈ 88.8 µM)

CC(=O)c1sc(N/N=C/c2cccc(/C=C/C(=O)c3ccco3)c2)nc1C
IC50 (Leishmania donovani [5]): 14 µM

COc1ccc(/C=C/C(=O)c2ccc(OCCCCOc3cccc4cccnc34)cc2)cc1OC
IC50 (Leishmania panamensis): 6.24 µg/mL (≈ 12.9 µM)

C=CCOc1ccc(C(=O)/C=C/c2cccc(OC)c2OC)cc1
IC50 (Leishmania donovani [3]): 0.65 µM

O=C(/C=C/c1cccc(Nc2ccnc3cc(Cl)ccc23)c1)c1ccc(Cl)cc1
IC50 (Leishmania panamensis): 0.79 µg/mL (≈ 1.88 µM)

COc1ccc(/C=C/C(=O)c2ccc(OCCCCOc3cc(Cl)ccc3Oc3ccc(Cl)cc3Cl)cc2)cc1OC
IC50 (Leishmania panamensis): 10.2 µg/mL (≈ 16.2 µM)

COc1ccc(/C=C/C(=O)c2ccc(OCCCCCOc3cc(Cl)ccc3Oc3ccc(Cl)cc3Cl)cc2)cc1OC
IC50 (Leishmania panamensis): 13.5 µg/mL (≈ 21 µM)

COc1ccc(C(=O)/C=C/c2cnc3ccccc3c2)c(OC)c1
EC50 (Leishmania donovani [6]): 1.5 µM

COc1ccc(/C=C/C(=O)c2ccccc2)cc1 [4-METHOXY CHALCONE]
IC50 (Leishmania amazonensis [7]): > 30 µM

COc1ccc(/C=C/C(=O)c2ccc(OCCCOc3cc(Cl)ccc3Oc3ccc(Cl)cc3Cl)cc2)cc1OC
IC50 (Leishmania panamensis): 9.4 µg/mL (≈ 15.3 µM)

O=C(/C=C/c1ccccn1)c1ccc(O)cc1
EC50 (Leishmania donovani [6]): 1.48 µM

O=C(/C=C/c1cccc(S(=O)(=O)Nc2ccccc2)c1)c1ccccc1
IC50 (Leishmania amazonensis [7]): 2 µM

COc1cc(O)cc(O)c1C(=O)/C=C/c1ccccc1 [CARDAMOMIN]
IC50 (Leishmania amazonensis [1]): 8 µM

O=C(/C=C/c1ccc2ccccc2c1)c1ccc(O)cc1
EC50 (Leishmania donovani [6]): 1.38 µM

COc1ccc(OC)c(C(=O)/C=C/c2ccccn2)c1
IC50 (Leishmania donovani [8]): 0.95 µM

Source: ChEMBL document CHEMBL4229373, “A comprehensive review of chalcone derivatives as antileishmanial agents” (Eur J Med Chem, 2018)
